What was measured:
[1] = tested on: mutant strain Aspergillus terreus CLS247-13; experiment: Minimal inhibitory concentration of nystatin, mutant strain; type: cell-based
Description: (§1) After incubating the culture in a liquid minimal medium containing nystatin for 1.5-3 hours, it was washed with saline solution, concentrated, diluted properly, and spreaded onto solid minimal medium containing 150 μg/ml of nystatin, and then the resultant was incubated at 28° C. for 8-15 days to isolate viable mutant strains. The isolated mutant strains resistant to nystatin, showing various morphological characteristics, were subcultured on solid minimal media containing increasing concentrations of nystatin (i.e., 150, 160, 170, 180, 190 and 200 […]) to select mutants showing increased resistance. The nystatin-resistant mutants thus obtained were incubated in an agar slant medium for 15-20 days. The spores formed were recovered in a 20% glycerin solution and subjected to liquid culture as disclosed in Example 2 below. As a result, the productivity of mevinolinic acid decreased and a variety of its analogues appeared. The mutant showing a high productivity of triol heptanoic acid of at least 11.5 g/L was selected and named ‘Aspergillus terreus CLS247-13’. Aspergillus terreus CLS247-13 maintained morphological characteristics, resistance to nystatin and high productivity of triol heptanoic acid constantly on a solid minimal medium containing 2 g/L of yeast extract for 10 generations. […]

[2] = tested on: parent strain Aspergillus terreus CLS216-7; experiment: Minimal inhibitory concentration of nystatin, parent strain; type: cell-based; settings: parent strain CLS216-7
Description: as §1

C[C@@H]1[C@H](O)[C@@H](C)/C=C/C=C/CC/C=C/C=C/C=C/C=C/C(O[C@H]2O[C@H](C)[C@@H](O)[C@H](N)[C@@H]2O)CC2O[C@](O)(CC(O)C(O)CCC(O)CC(O)CC(O)CC(=O)O[C@H]1C)CC(O)C2C(=O)O (stereo partly drawn) [nystatin]
Minimal inhibitory conc. of nystatin ([1]; mutant strain CLS247-13): ≦200 μg/ml | increase of minimal inhibitory concentration of nystatin (resistance to nystatin) compared with parent strain ([1]; mutant strain CLS247-13 compared with parent strain CLS216-7): 8 fold | Minimal inhibitory conc. of nystatin [2]: ≦25 μg/ml
